Experimental data as given in patent EP3173421A1, “PEPTIDIC COMPOUNDS USEFUL AS ANTIBACTERIAL AGENTS” (Universitat de Barcelona, priority 2015, dated 2017).
In brackets after ≈: the same amount, converted by molar mass. Read-outs that look alike come from different tables or passages of the source. Marks after values point to notes of the source that are not given here. Where a SMILES comes first, the peptide text is derived from it. Bridges are numbered along the chain shown (N, C = ends). Where no end group is shown, it is not given here. [ ]: non-standard residue; d: D form. The star is where a group is joined. ξ: configuration not given here. dAoc(2) = CCCCCC[C@@H](N)C(=O)O; ξLac(3-iPr) = CC(C)CC(O)C(=O)O; Decanoyl = CCCCCCCCCC(=O)*; Nonanoyl = CCCCCCCCC(=O)*; Heptanoyl = CCCCCCC(=O)*; Nle = CCCC[C@H](N)C(=O)O; Octanoyl = CCCCCCCC(=O)*; Dab = NCC[C@H](N)C(=O)O; Hexanoyl = CCCCCC(=O)*

Key:
[1] = test system: Pseudomonas aeruginosa 21 S; conditions: P. aeruginosa 21S
Procedure: (§1) The antibacterial activity of the lipopeptides was measured in sterile 96-well plates (Corning Costar 3598 microtiter plates). Samples of a final volume of 200µL were prepared as follows: aliquots (100 µL) of a suspension containing bacteria at a concentration of 10^5 colony-forming units/mL in culture medium (MH, Muller Hinton Broth, Difco, USA), adjusted at pH 7.4, were added to 100µL of solution containing the peptide prepared from a stock solution of 1 mg/mL peptide in water in serial 2-fold dilutions in MH broth adjusted to pH 7.4 (Jorgensen and Turnide, 2003). Inhibition of bacterial growth was determined by measuring the absorbance at 492 nm with a Absorbance Microplate reader ELx 800 (Bio-tek Instruments) after an incubation of 18-20 h at 37°C. Antibacterial activities are expressed as the MIC, the concentration at which no growth is observed after 18-20 h of incubation. Microorganisms were cultured on Tryptycase Soy Broth (Pronadisa, Barcelona) and incubated at 37°C until growth. Then a loopfull was streaked on Trypticase Soy Agar (Pronadisa, Barcelona) and incubated at 37°C until colony formation occurs. Microorganisms were preserved on cryobilles (EAS laboratoire, France) at -20°C.
(§2) For resistant and multi-drug resistant bacteria Gram negative bacteria, the test was essentially the same with slight changes in the amounts used: samples of a final volume of 100µL were prepared as follows: aliquots (50 µL) of a suspension containing bacteria at a concentration of 1.5x10^6 colony-forming units/mL in culture medium (MH, Muller Hinton Broth, Difco, USA), adjusted at pH 7.4, were added to […] of solution containing the peptide prepared from a stock solution of 1024 mg/L peptide in water in serial 2-fold dilutions in MH broth adjusted to pH 7.4
(§3) Samples of resistant and multi-drug resistant bacteria were from clinical origin and not standardized: • Resistant Gram-negative bacterias used: • Escherichia coli VAL 5 • Escherichia coli VAL 10 • Escherichia coli MAC21a • Escherichia coli NDM-1 • Pseudomonas aeruginosa 36a • Pseudomonas aeruginosa 38a • Pseudomonas aeruginosa 21 R • Pseudomonas aeruginosa 21 S • Pseudomonas aeruginosa 12R • Pseudomonas aeruginosa 12S • Colistin-resistant A. baumannii CR49 • Colistin-resistant A. baumannii Ab99
(§4) P. aeruginosa strains are highly-resistant: For instance, 38a and 36a are resistant to Ceftazidime, Ciprofloxacin, Imipenem, Piperacillin-tazobactam; 21S is resistant to Ceftazidime, Ciprofloxacin, Imipenem, Piperacillin-tazobactam and tobramycin; 21 R is resistant to Ciprofloxacin, tobramycin and colistin; 12S is resistant to cefotoxin, piperacillin/tazobactam, aztreonam, gentamicin and amikacin; and 12R is resistant to ceftazidime, cefotoxin,cefepime, piperacillin/tazobactam, aztreonam,imipenem, gentamicin, amikacin and colistin.

[2] = test system: Pseudomonas aeruginosa 21 R; conditions: P. aeruginosa 21R
Procedure: as §1, §2, §3, §4

[3] = test system: Pseudomonas aeruginosa 12S; assay type: cell-based; conditions: P. aeruginosa 12S
Procedure: (§7) For resistant and multi-drug resistant bacteria Gram negative bacteria, the test was essentially the same with slight changes in the amounts used: samples of a final volume of 100µL were prepared as follows: aliquots (50 µL) of a suspension containing bacteria at a concentration of 1.5x10^6 colony-forming units/mL in culture medium (MH, Muller Hinton Broth, Difco, USA), adjusted at pH 7.4, were added to 100µL of solution containing the peptide prepared from a stock solution of 1024 mg/L peptide in water in serial 2-fold dilutions in MH broth adjusted to pH 7.4
(§8) Samples of resistant and multi-drug resistant bacteria were from clinical origin and not standardized: • Resistant Gram-negative bacterias used: • Escherichia coli VAL 5 • Escherichia coli VAL 10 • Escherichia coli MAC21a • Escherichia coli NDM-1 • Pseudomonas aeruginosa 36a • Pseudomonas aeruginosa 38a • Pseudomonas aeruginosa 21 R • Pseudomonas aeruginosa 21 S • Pseudomonas aeruginosa 12R • Pseudomonas aeruginosa 12S • Colistin-resistant A. baumannii CR49 • Colistin-resistant A. baumannii Ab99 […]

[4] = test system: Escherichia coli VAL 10; assay type: cell-based
Description: (§5) E. coli strains: NDM-1 (multidrug resistant strain) and VAL10, VAL5 and MAC21 strains show intermediante resistance to quinolones

[5] = test system: Escherichia coli MAC21a; assay type: cell-based
Description: as §5

[6] = test system: Escherichia coli NDM-1; assay type: cell-based
Description: as §5

[7] = test system: Escherichia coli VAL 5; assay type: cell-based
Description: as §5

[8] = test system: Pseudomonas aeruginosa 38a; assay type: cell-based
Procedure: as §7

[9] = test system: Staphylococcus aureus ATTC6538; assay type: cell-based
Description: (§6) Bacterial strains used for the antibacterial activity tests were obtained from the American Type Culture Collection (ATCC, Rockville, MD, USA): • Non resistant Gram-negative bacterias: • Escherichia coli ATCC 8739 • Pseudomonas aeruginosa ATCC 9027 • Non resistant Gram-positive bacteria: • Staphylococcus aureus ATTC6538

[10] = test system: Escherichia coli ATCC 8739; assay type: cell-based
Description: as §6

[11] = test system: Pseudomonas aeruginosa ATCC 9027; assay type: cell-based
Description: as §6

[12] = test system: Pseudomonas aeruginosa 36a; assay type: cell-based
Procedure: as §7

[13] = test system: Pseudomonas aeruginosa 12R; assay type: cell-based; conditions: P. aeruginosa 12R
Procedure: as §7, §8

[14] = test system: Staphylococcus aureus ATTC6538; conditions: S. aureus ATTC6538; comparative examples, extracted from Rabanal et al. 2015; cited from earlier work
[15] = test system: Escherichia coli ATCC 8739; conditions: E coli ATCC8739 (non-resistant); comparative examples, extracted from Rabanal et al. 2015; cited from earlier work
[16] = test system: Pseudomonas aeruginosa ATCC 9027; conditions: P. aeruginosa ATTC9027 (non-resistant); comparative examples, extracted from Rabanal et al. 2015; cited from earlier work
[17] = test system: Colistin-resistant A. baumannii Ab99; assay type: cell-based
Procedure: as §7

[18] = test system: Colistin-resistant A. baumannii CR49; assay type: cell-based
Procedure: as §7

Compound | MIC [1] | MIC [2] | MIC [3] | MIC [4] | MIC [5] | MIC [6] | MIC [7] | MIC ([8]; 38a) | MIC [9] | MIC [10] | MIC ([11]; ATCC 9027) | MIC ([12]; 36a) | MIC [13] | MIC [17] | MIC [18] | also measured
CCCCCCC(=O)N[C@@H](CCN)C(=O)N[C@H](C(=O)N[C@@H](CCN)C(=O)N[C@H]1CSSC[C@H](C(N)=O)NC(=O)[C@H](CCN)NC(=O)[C@H](CCN)NC(=O)[C@H](CCCC)NC(=O)[C@@H](CCCCCC)NC(=O)[C@H](CCN)NC1=O)[C@@H](C)O [Example 1, heptanoyl-Dab-Thr-Dab-cyclo(S-S)[Cys-Dab-DAoc-Nle-Dab-Dab-DCys]] (Heptanoyl-[Dab]T[Dab]C[Dab][dAoc(2)][Nle][Dab][Dab][dC]-NH2; disulfide 4-10) | 0.03 µg/mL (≈ 0.0252 µM) | 0.25 µg/mL (≈ 0.21 µM) | 0.5 µg/mL (≈ 0.42 µM) | 1 µg/mL (≈ 0.841 µM) | <0.5 µg/mL | ≤ 0.5 µg/mL | 1 µg/mL (≈ 0.841 µM) | 0.03 µg/mL (≈ 0.0252 µM) | 16 µg/mL (≈ 13.5 µM) | 0.5 to 1 µg/mL | 0.5 µg/mL (≈ 0.42 µM) | 0.06 µg/mL (≈ 0.0504 µM) | 1 µg/mL (≈ 0.841 µM) |  |  | 
Decanoyl-[Dab]T[Dab]C[Dab][dF]L[Dab][Dab][dC] (cysteine pairing not given here) [Comparative Example 8b] |  |  |  |  |  |  |  |  |  |  |  |  |  |  |  | MIC [14]: 8 µg/mL; MIC [15]: 2 µg/mL; MIC [16]: 4 µg/mL
CCCCCC[C@H]1NC(=O)[C@H](CCN)NC(=O)[C@@H](NC(=O)[C@H](CCN)NC(=O)[C@@H](NC(=O)[C@H](CCN)NC(=O)CCCCC)[C@@H](C)O)CSSC[C@H](C(N)=O)NC(=O)[C@H](CCN)NC(=O)[C@H](CCN)NC(=O)C(CC(C)C)OC1=O (stereo partly drawn) [Example 5, hexanoyl-Dab-Thr-Dab-cyclo(S-S)[Cys-Dab-DAoc-OLe-Dab-Dab-DCys]] (Hexanoyl-[Dab]T[Dab]C[Dab][dAoc(2)][ξLac(3-iPr)][Dab][Dab][dC]-NH2; disulfide 4-10) |  |  |  |  |  |  |  |  | 32 µg/mL (≈ 27.2 µM) | 2 to 4 µg/mL | <0.25 µg/mL |  |  |  |  | 
CCCCCCC(=O)N[C@@H](Cc1c[nH]cn1)C(=O)N[C@H](C(=O)N[C@@H](CCN)C(=O)N[C@H]1CSSC[C@H](C(N)=O)NC(=O)[C@H](Cc2c[nH]cn2)NC(=O)[C@H](CCN)NC(=O)[C@H](CCCC)NC(=O)[C@@H](CCCCCC)NC(=O)[C@H](CCN)NC1=O)[C@@H](C)O [Example 6] (Heptanoyl-HT[Dab]C[Dab][dAoc(2)][Nle][Dab]H[dC]-NH2; disulfide 4-10) |  |  |  | 16 µg/mL (≈ 12.7 µM) | 8 µg/mL (≈ 6.33 µM) | 8 µg/mL (≈ 6.33 µM) | 8 µg/mL (≈ 6.33 µM) | 32 µg/mL (≈ 25.3 µM) | 16 µg/mL (≈ 12.7 µM) | 4 µg/mL (≈ 3.17 µM) | 1 µg/mL (≈ 0.791 µM) | 1 µg/mL (≈ 0.791 µM) |  | 32 µg/mL (≈ 25.3 µM) | 4 µg/mL (≈ 3.17 µM) | 
CCCCCCCC(=O)N[C@@H](CCN)C(=O)N[C@H](C(=O)N[C@@H](CCN)C(=O)N[C@H]1CSSC[C@H](C(N)=O)NC(=O)[C@H](CCN)NC(=O)[C@H](CCN)NC(=O)C(CC(C)C)OC(=O)[C@@H](CCCCCC)NC(=O)[C@H](CCN)NC1=O)[C@@H](C)O (stereo partly drawn) [Example 4, octanoyl-Dab-Thr-Dab-cyclo(S-S)[Cys-Dab-DAoc-OLe-Dab-Dab-DCys]] (Octanoyl-[Dab]T[Dab]C[Dab][dAoc(2)][ξLac(3-iPr)][Dab][Dab][dC]-NH2; disulfide 4-10) | 0.25 µg/mL (≈ 0.208 µM) | 2 µg/mL (≈ 1.66 µM) | 0.125 µg/mL (≈ 0.104 µM) | 8 µg/mL (≈ 6.64 µM) | 8 µg/mL (≈ 6.64 µM) | 1 µg/mL (≈ 0.83 µM) | 1 µg/mL (≈ 0.83 µM) |  |  | 1 µg/mL (≈ 0.83 µM) | 0.25 µg/mL (≈ 0.208 µM) |  | 0.25 µg/mL (≈ 0.208 µM) | 8 µg/mL (≈ 6.64 µM) | 16 µg/mL (≈ 13.3 µM) | MIC ([8]; P. aeruginosa 38a): 0.125 µg/mL (≈ 0.104 µM); MIC ([12]; P. aeruginosa 36a): 0.125 µg/mL (≈ 0.104 µM)
CCCCCCC(=O)N[C@@H](CCN)C(=O)N[C@H](C(=O)N[C@@H](CCN)C(=O)N[C@H]1CSSC[C@H](C(N)=O)NC(=O)[C@H](CCN)NC(=O)[C@H](CCN)NC(=O)C(CC(C)C)OC(=O)[C@@H](CCCCCC)NC(=O)[C@H](CCN)NC1=O)[C@@H](C)O (stereo partly drawn) [Example 2, heptanoyl-Dab-Thr-Dab-cyclo(S-S)[Cys-Dab-DAoc-OLe-Dab-Dab-DCyc]] (Heptanoyl-[Dab]T[Dab]C[Dab][dAoc(2)][ξLac(3-iPr)][Dab][Dab][dC]-NH2; disulfide 4-10) | 0.25 µg/mL (≈ 0.21 µM) | 2 µg/mL (≈ 1.68 µM) | 0.25 µg/mL (≈ 0.21 µM) | 32 µg/mL (≈ 26.9 µM) | 8 µg/mL (≈ 6.72 µM) | 1 µg/mL (≈ 0.84 µM) | 1 µg/mL (≈ 0.84 µM) | 0.125 µg/mL (≈ 0.105 µM) | 64 µg/mL (≈ 53.8 µM) | 4 µg/mL (≈ 3.36 µM) | 1 to 2 µg/mL | 1 µg/mL (≈ 0.84 µM) | 0.25 µg/mL (≈ 0.21 µM) | 16 µg/mL (≈ 13.4 µM) | 16 µg/mL (≈ 13.4 µM) | 
CCCCCC[C@@H](N)C(=O)N[C@H](C(=O)N[C@@H](CCN)C(=O)N[C@H]1CSSC[C@H](C(N)=O)NC(=O)[C@H](CCN)NC(=O)[C@H](CCN)NC(=O)C(CC(C)C)OC(=O)[C@@H](CCCCCC)NC(=O)[C@H](CCN)NC1=O)[C@@H](C)O (stereo partly drawn) [Example 3, DAoc-Thr-Dab-cyclo(S-S)[Cys-Dab-DAoc-OLe-Dab-Dab-DCys]] (H-[dAoc(2)]T[Dab]C[Dab][dAoc(2)][ξLac(3-iPr)][Dab][Dab][dC]-NH2; disulfide 4-10) | 0.25 µg/mL (≈ 0.223 µM) | 0.125 µg/mL (≈ 0.112 µM) | 0.5 µg/mL (≈ 0.447 µM) | 16 µg/mL (≈ 14.3 µM) | 8 µg/mL (≈ 7.15 µM) | 2 µg/mL (≈ 1.79 µM) | 2 µg/mL (≈ 1.79 µM) | 4 µg/mL (≈ 3.57 µM) |  | 2 µg/mL (≈ 1.79 µM) | 0.25 µg/mL (≈ 0.223 µM) | 0.5 µg/mL (≈ 0.447 µM) | 0.25 µg/mL (≈ 0.223 µM) | 8 µg/mL (≈ 7.15 µM) | 8 µg/mL (≈ 7.15 µM) | 
CCCCCC[C@H]1NC(=O)[C@H](CCN)NC(=O)[C@@H](NC(=O)[C@H](CCN)NC(=O)[C@@H](NC(=O)[C@H](CCN)NC(=O)CCCCC)[C@@H](C)O)CSSC[C@H](C(N)=O)NC(=O)[C@H](CCN)NC(=O)[C@H](CCN)NC(=O)[C@H](CCCC)NC1=O [Example 7, hexanoyl-Dab-Thr-Dab-cyclo(S-S)[Cys-Dab-DAoc-Nle-Dab-Dab-DCys]] (Hexanoyl-[Dab]T[Dab]C[Dab][dAoc(2)][Nle][Dab][Dab][dC]-NH2; disulfide 4-10) |  |  |  |  |  |  |  |  | >32 µg/mL | 8 µg/mL (≈ 6.81 µM) |  |  |  |  |  | MIC ([11]; P. aeruginosa ATTC9027 (non-resistant)): 1-2* µg/ml
Nonanoyl-[Dab]T[Dab]C[Dab][dF]L[Dab][Dab]C (cysteine pairing not given here) [Comparative Example 8a] |  |  |  |  |  |  |  |  |  |  |  |  |  |  |  | MIC [14]: >32 µg/mL; MIC [15]: 4 µg/mL; MIC [16]: 8 µg/mL
